Measured values published in patent US8076487B2, “Pyridone derivative and herbicide” (Kumiai Chemical Industry Co., Ltd., priority 2006, dated 2011).

How the values were obtained:
Format in all cases: in vivo
[1] = tested on: Japanese bulrush (Scirpus juncoides Roxb.); assay: Test Example 1: herbicidal effect by soil application to paddy field; conditions: paddy field soil application; active ingredient 1,000 g per 1 hectare; wettable powder added dropwise to water surface the day after sowing; examined on the 21st day after application
Method in brief: (§1)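 Plants were sown in flooded (3 cm) paddy soil and evaluated for herbicidal effect 21 days after soil application in a greenhouse.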

[2] = tested on: heartshape false pickerelweed (Monochoria vaginalis (Burm.f.) C.Presl); assay: as above; conditions: paddy field soil application; active ingredient 1,000 g per 1 hectare; wettable powder added dropwise to water surface the day after sowing; examined on the 21st day after application
Method in brief: as §1

[3] = tested on: early watergrass (Echinochloa oryzicola Vasing); assay: as above; conditions: paddy field soil application; active ingredient 1,000 g per 1 hectare; wettable powder added dropwise to water surface the day after sowing; examined on the 21st day after application
Method in brief: as §1

[4] = tested on: green foxtail (Setaria viridis (L.) P. Beauv.); assay: Test Example 3: herbicidal effect by application to upland field (foliage treatment); conditions: 14th day after application; for herbicidal effect, Green Foxtail: foliage treatment, 1,000 g active ingredient per 1 hectare, greenhouse
Method in brief: (§2)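 Greenhouse-grown plants, two weeks old in field soil, were treated by spraying their foliage with a water dilution of wettable powder. Rate: 1,000 g active ingredient in a 1,000 L/ha equivalent volume. Assessment followed at 14 days.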

[5] = tested on: velvetleaf (Abutilon theophrasti medicus); assay: as above; conditions: 14th day after application; for herbicidal effect, Velvetleaf: foliage treatment, 1,000 g active ingredient per 1 hectare, greenhouse
Method in brief: as §2

[6] = tested on: barnyardgrass (Echinochloa crus-galli (L.) P. Beauv. var. crus-galli); assay: as above; conditions: 14th day after application; for herbicidal effect, Barnyardgrass: foliage treatment, 1,000 g active ingredient per 1 hectare, greenhouse
Method in brief: as §2

[7] = tested on: slender amaranth (Amaranthus viridis L.); assay: as above; conditions: 14th day after application; for herbicidal effect, Slender Amaranth: foliage treatment, 1,000 g active ingredient per 1 hectare, greenhouse
Method in brief: as §2

[8] = tested on: green foxtail (Setaria viridis (L.) P. Beauv.); assay: Test Example 2: herbicidal effect by soil application to upland field; conditions: soil surface spray, upland field soil, 1,000 g active ingredient per hectare, 21st day after application
Method in brief: (§3)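 Herbicidal activity was graded on a standard scale on day 21 after soil application. The covered, freshly sown pots of field soil received an aqueous wettable-powder spray delivering 1,000 g active ingredient/ha at 1,000 liters/ha and were kept in a greenhouse.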

[9] = tested on: velvetleaf (Abutilon theophrasti medicus); assay: as above; conditions: soil surface spray, upland field soil, 1,000 g active ingredient per hectare, 21st day after application
Method in brief: as §3

[10] = tested on: barnyardgrass (Echinochloa crus-galli (L.) P. Beauv. var. crus-galli); assay: as above; conditions: soil surface spray, upland field soil, 1,000 g active ingredient per hectare, 21st day after application
Method in brief: as §3

[11] = tested on: slender amaranth (Amaranthus viridis L.); assay: as above; conditions: soil surface spray, upland field soil, 1,000 g active ingredient per hectare, 21st day after application
Method in brief: as §3

[12] = foliage treatment, plants grown two weeks, 1,000 g active ingredient per hectare

Row | SMILES | herbicidal effect, Scirpus juncoides Roxb. [1] | herbicidal effect, Monochoria vaginalis (Burm. f.) C. Presl [2] | herbicidal effect, Echinochloa oryzicola Vasing [3] | herbicidal effect, Green Foxtail [4] | herbicidal effect, Velvetleaf [5] | herbicidal effect, Barnyardgrass [6] | herbicidal effect, Slender Amaranth [7] | herbicidal effect (index), Green Foxtail [8] | herbicidal effect (index), Velvetleaf [9] | herbicidal effect (index), Barnyardgrass [10] | herbicidal effect (index), Slender Amaranth [11] | herbicidal effect (index), Green Foxtail [4, 12] | herbicidal effect (index), Velvetleaf [5, 12] | herbicidal effect (index), Barnyardgrass [6, 12] | herbicidal effect (index), Slender Amaranth [7, 12]
1 | CCCS(=O)(=O)Oc1c(C(=O)c2ccc(C(F)(F)F)n(CC(OC)OC)c2=O)cnn1C [IV-118] | 5 (90% or more of herbicidal effect and crop phytotoxicity) | 5 (90% or more of herbicidal effect and crop phytotoxicity) | 5 (90% or more of herbicidal effect and crop phytotoxicity) | 5 (90% or more of herbicidal effect and crop phytotoxicity) | 5 (90% or more of herbicidal effect and crop phytotoxicity) | 5 (90% or more of herbicidal effect and crop phytotoxicity) | 5 (90% or more of herbicidal effect and crop phytotoxicity) | 5 (90% or more of herbicidal effect and crop phytotoxicity) | 5 (90% or more of herbicidal effect and crop phytotoxicity) | 5 (90% or more of herbicidal effect and crop phytotoxicity) | 5 (90% or more of herbicidal effect and crop phytotoxicity) |  |  |  | 
2 | Cn1ncc(C(=O)c2ccc(C(F)(F)F)n(C3CC3)c2=O)c1O [IV-18] | 5 (90% or more of herbicidal effect and crop phytotoxicity) | 5 (90% or more of herbicidal effect and crop phytotoxicity) | 5 (90% or more of herbicidal effect and crop phytotoxicity) | 5 (90% or more of herbicidal effect and crop phytotoxicity) | 5 (90% or more of herbicidal effect and crop phytotoxicity) | 5 (90% or more of herbicidal effect and crop phytotoxicity) | 5 (90% or more of herbicidal effect and crop phytotoxicity) | 5 (90% or more of herbicidal effect and crop phytotoxicity) | 5 (90% or more of herbicidal effect and crop phytotoxicity) | 5 (90% or more of herbicidal effect and crop phytotoxicity) | 5 (90% or more of herbicidal effect and crop phytotoxicity) |  |  |  | 
3 | CS(=O)(=O)c1ccc(-n2c(C(F)(F)F)ccc(C(=O)C3=C(O)CCCC3=O)c2=O)cc1 [I-83] | 5 (90% or more of herbicidal effect and crop phytotoxicity) | 5 (90% or more of herbicidal effect and crop phytotoxicity) | 5 (90% or more of herbicidal effect and crop phytotoxicity) |  |  |  |  | 5 (90% or more of herbicidal effect and crop phytotoxicity) | 5 (90% or more of herbicidal effect and crop phytotoxicity) | 5 (90% or more of herbicidal effect and crop phytotoxicity) | 5 (90% or more of herbicidal effect and crop phytotoxicity) | 5 (90% or more of herbicidal effect and crop phytotoxicity) | 5 (90% or more of herbicidal effect and crop phytotoxicity) | 5 (90% or more of herbicidal effect and crop phytotoxicity) | 5 (90% or more of herbicidal effect and crop phytotoxicity)
4 | Cn1c(C(F)(F)F)ccc(C(=O)C2=C(O)C3CCC(C3)C2=O)c1=O (centres unmarked) [III-1] | 5 (90% or more of herbicidal effect and crop phytotoxicity) | 5 (90% or more of herbicidal effect and crop phytotoxicity) | 5 (90% or more of herbicidal effect and crop phytotoxicity) | 5 (90% or more of herbicidal effect and crop phytotoxicity) | 5 (90% or more of herbicidal effect and crop phytotoxicity) | 4 (70 to less than 90% of herbicidal effect and crop phytotoxicity) | 5 (90% or more of herbicidal effect and crop phytotoxicity) | 5 (90% or more of herbicidal effect and crop phytotoxicity) | 5 (90% or more of herbicidal effect and crop phytotoxicity) | 5 (90% or more of herbicidal effect and crop phytotoxicity) | 5 (90% or more of herbicidal effect and crop phytotoxicity) |  |  |  | 
5 | CCCS(=O)(=O)Oc1c(C(=O)c2ccc(C(F)(F)F)n(-c3ccc(OC)c(F)c3)c2=O)cnn1C [IV-93] | 5 (90% or more of herbicidal effect and crop phytotoxicity) | 5 (90% or more of herbicidal effect and crop phytotoxicity) | 5 (90% or more of herbicidal effect and crop phytotoxicity) | 4 (70 to less than 90% of herbicidal effect and crop phytotoxicity) | 4 (70 to less than 90% of herbicidal effect and crop phytotoxicity) | 4 (70 to less than 90% of herbicidal effect and crop phytotoxicity) | 5 (90% or more of herbicidal effect and crop phytotoxicity) | 4 (70 to less than 90% of herbicidal effect and crop phytotoxicity) | 5 (90% or more of herbicidal effect and crop phytotoxicity) | 5 (90% or more of herbicidal effect and crop phytotoxicity) | 5 (90% or more of herbicidal effect and crop phytotoxicity) |  |  |  | 
6 | CS(=O)(=O)CCn1c(C(F)(F)F)ccc(C(=O)C2=C(O)C3CCC(C3)C2=O)c1=O (centres unmarked) [III-30] |  |  |  | 5 (90% or more of herbicidal effect and crop phytotoxicity) | 5 (90% or more of herbicidal effect and crop phytotoxicity) | 5 (90% or more of herbicidal effect and crop phytotoxicity) | 5 (90% or more of herbicidal effect and crop phytotoxicity) | 5 (90% or more of herbicidal effect and crop phytotoxicity) | 5 (90% or more of herbicidal effect and crop phytotoxicity) | 5 (90% or more of herbicidal effect and crop phytotoxicity) | 5 (90% or more of herbicidal effect and crop phytotoxicity) |  |  |  | 
7 | C=CCn1c(C(F)(F)F)ccc(C(=O)C2=C(O)C(C)(C)C(=O)C(C)(C)C2=O)c1=O [II-42] |  |  |  | 3 (50 to less than 70% of herbicidal effect and crop phytotoxicity) | 5 (90% or more of herbicidal effect and crop phytotoxicity) | 5 (90% or more of herbicidal effect and crop phytotoxicity) | 5 (90% or more of herbicidal effect and crop phytotoxicity) | 3 (50 to less than 70% of herbicidal effect and crop phytotoxicity) | 5 (90% or more of herbicidal effect and crop phytotoxicity) | 5 (90% or more of herbicidal effect and crop phytotoxicity) | 5 (90% or more of herbicidal effect and crop phytotoxicity) |  |  |  | 
